pIC50: −log10 of the molar value.
These compounds were tested against T1, APOL1 G1 Protein (Homo sapiens, UniProt O14791, I384M/S342G) (assay: Trypanosoma brucei brucei lysis assay using APOL1 recombinant protein (AlamarBlue viability)). Settings: Trypanosoma brucei brucei lysis, recombinant APOL1, AlamarBlue; read-out: Trypanosoma Assay (IC50).
T1 sequence (O14791 28-398 S342G/I384M): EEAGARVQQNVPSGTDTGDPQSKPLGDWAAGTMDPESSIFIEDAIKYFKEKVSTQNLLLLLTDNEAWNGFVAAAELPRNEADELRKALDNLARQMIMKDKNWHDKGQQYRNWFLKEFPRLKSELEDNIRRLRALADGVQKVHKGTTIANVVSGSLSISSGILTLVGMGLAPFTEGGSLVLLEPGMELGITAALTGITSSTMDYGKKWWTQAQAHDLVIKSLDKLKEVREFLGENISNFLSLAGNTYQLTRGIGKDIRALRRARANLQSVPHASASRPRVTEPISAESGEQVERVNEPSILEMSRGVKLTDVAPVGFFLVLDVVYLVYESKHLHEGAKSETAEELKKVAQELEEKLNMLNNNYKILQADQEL
Format: cell-based
Description: Trypanosoma brucei brucei is a blood stream parasite to which human, gorillas and baboon are immune due to the presence of the APOL1 protein in their HDL particles. The protein is uptaken by the parasite via the TbHpHb receptor located in its flagellar pocket and is bonded by the Hpr protein contained in the HDL particles which triggers the receptor endocytosis by the parasite.
Following endocytosis, the formed vesicle containing the HDL particle matures from early to late endosome, and subsequently to lysosome. The concomitant pH change in the lumen of the vesicle triggers the insertion of the APOL1 protein into the membrane of the late endosome/lysosome and hereby triggers lysosomal membrane premeabilisation and as a further downstream event, trypanosome lysis. Trypanosoma brucei brucei is sensitive to lysis by all three APOL1 variants (G0, G1, and G2).
The Trypanosoma brucei brucei lysis assay is a lysis assay of the parasite using recombinant APOL1 protein variant followed by a fluorescent detection method of viability by the addition of AlamarBlue reagent to the assay well, a general metabolic redox indicator (AlamarBlue assay).
Briefly, the AlamarBlue active compound, the resazurin, a blue, water soluble, non-toxic and cell permeable molecule, which can be followed by absorbance, is reduced by various metabolic pathways into resorufin, a red compound which can be followed by either absorbance or fluorescence. The assay allows the calculation of the percent viability (percent of living Trypanosomes remaining in each well) at the end of a lysis relative to the untreated condition by interpolation of fluorescent values (FLU) on a standard curve with a known amount of seeded trypanosome/well.
Trypanosoma brucei brucei (ATCC, Cat. No. PRA-382) • Lister 427 VSG 221 bloodstream form.
Thaw/Expansion Media (ATCC Medium 2834 Modified HMI-9 Medium)
Assay Media (No Phenol Red/No FBS): Make on Day of Use
Hypoxanthine Stock (100×)-9 (10×)
Equipment • El-Clip Tip pipette 12 channel adjustable 2-125 μL, Cat. No. 4672070BT • ThermoFisher MultiDrop 384, Cat. No. 5840300 • Multidrop • Agilent Bravo, Cat. No. G5409A • Bravo • SpectraMax M5
Assay Ready Plates (ARPs) • ARPs comes in two formats: • […] final top concentration with a 2.5 fold dilution down. • […] final top concentration with a 3 fold dilution down. • Both have a 10 point Dose response. • 0.1% DMSO final in the Black Assay Plate. • Compounds are diluted 1000 fold in the Black Assay Plate. • Each plate is designed for 14 compounds in duplicate. • In the final Black Assay Plate:
Trypanosoma brucei brucei Culture
Step 2, Day 4 • Centrifuge at 800×g for 5 minutes at room temperature. • Resuspend in 1 mL media. • Make a 1:25 fold dilution (10 μL/240 μL media). • Count on a hemocytometer (after adding parasites). • Let sit for 1-2 minutes for the parasites to settle. • Count should be approximately 100 viable motile parasites/16 grid or approximately 25×10^6 parasites/flask. • Passage the parasites by adding 1×10^6 parasites/T75 flask in 20 mL media. • Passage the parasites by adding 2.33×10^6 parasites/T175 flask in 46.6 mL media. • For every T75 flask should make enough for approximately 1.5×384 well assay plates. • For every T175 flask should make enough for approximately 3.8×384 well assay plates.
Step 3, Day 6 • Centrifuge at 800×g for 5 minutes. • Resuspend in 3 mL assay media (No phenol red, no FBS) per 75 starting flask. • Resuspend in 7 mL assay media (No phenol red, no FBS) per 175 flask • Make a 1:25 fold dilution. • Count by hemocytometer. • Every T75 flask set up should have approximately 75×10^6 parasites/flask (verify doubling time=8.7 hrs±1 hr). • Every T175 flask set up should have approximately 175×10^6 parasites/flask (verify doubling time=8.7 hrs±1 hr). • Require 46×10^6 parasites per 384 well plate (at 120,000 parasites per well). Protocol B […]

| SMILES | pIC50 |
| --- | --- |
| O=C(NCc1cocn1)[C@H]1C[C@H](c2c(-c3ccc(F)cc3)[nH]c3c(F)cc(F)cc32)C1 [Compound 168] | > 6.60 |
| CN(C)C[C@@H]1CCN(C(=O)[C@H]2C[C@H](c3c(-c4ccc(F)cc4)[nH]c4c(F)cc(F)cc43)C2)C[C@H]1O [Compound 110] | 6.00 to 6.60 |
| NC(=O)[C@@H]1CCN(C(=O)[C@H]2C[C@H](c3c(-c4ccc(F)cc4)[nH]c4c(F)cc(F)cc43)C2)C1 [Compound 135] | < 6.00 |
| O=C([C@H]1C[C@H](c2c(-c3ccc(F)cc3)[nH]c3c(F)cc(F)cc32)C1)N1CCN[C@H](CO)C1 [Compound 161] | 6.00 to 6.60 |
| O=C(NCC1(O)CCC1)[C@H]1C[C@H](c2c(-c3ccc(F)cc3)[nH]c3c(F)cc(F)cc32)C1 [Compound 143] | < 6.00 |
| O=C([C@H]1C[C@H](c2c(-c3ccc(F)cc3)[nH]c3c(F)cc(F)cc32)C1)N1CCCC(CCO)C1 (some centres unmarked) [Compound 128] | < 6.00 |
| CCC(O)(CCCO)CNC(=O)[C@H]1C[C@H](c2c(-c3ccc(F)cc3)[nH]c3c(F)cc(F)cc32)C1 (some centres unmarked) [Compound 119] | < 6.00 |
| O=C1CC[C@@H](NC(=O)[C@H]2C[C@H](c3c(-c4ccc(F)cc4)[nH]c4c(F)cc(F)cc43)C2)C1 [Compound 157] | < 6.00 |
| CNC(=O)C(C)NC(=O)[C@H]1C[C@H](c2c(-c3ccc(F)cc3)[nH]c3c(F)cc(F)cc32)C1 (mixture of isomers) [Compound 9] | 6.00 to 6.60 |
| O=C([C@H]1C[C@H](c2c(-c3ccc(F)cc3)[nH]c3c(F)cc(F)cc32)C1)N1CC(OCC2CCCO2)C1 (some centres unmarked) [Compound 136] | < 6.00 |
| C[C@H](CO)N(C)C(=O)[C@H]1C[C@H](c2c(-c3ccc(F)cc3)[nH]c3c(F)cc(F)cc32)C1 [Compound 142] | > 6.60 |
| O=C([C@H]1C[C@H](c2c(-c3ccc(F)cc3)[nH]c3c(F)cc(F)cc32)C1)N(CCOCCO)C1CCC1 [Compound 121] | < 6.00 |
| O=C([C@H]1C[C@H](c2c(-c3ccc(F)cc3)[nH]c3c(F)cc(F)cc32)C1)N1CCOCC1CCO (some centres unmarked) [Compound 113] | < 6.00 |
| O=C(NC1(CO)CCC1)[C@H]1C[C@H](c2c(-c3ccc(F)cc3)[nH]c3c(F)cc(F)cc32)C1 [Compound 6] | > 6.60 |
| NC(=O)[C@H]1CCN(C(=O)[C@H]2C[C@H](c3c(-c4ccc(F)cc4)[nH]c4c(F)cc(F)cc43)C2)C1 [Compound 154] | < 6.00 |
| CN(CC1(CO)CCOCC1)C(=O)[C@H]1C[C@H](c2c(-c3ccc(F)cc3)[nH]c3c(F)cc(F)cc32)C1 [Compound 120] | < 6.00 |
| NC(=O)[C@H]1CCCN1C(=O)[C@H]1C[C@H](c2c(-c3ccc(F)cc3)[nH]c3c(F)cc(F)cc32)C1 [Compound 153] | > 6.60 |
| O=C([C@H]1C[C@H](c2c(-c3ccc(F)cc3)[nH]c3c(F)cc(F)cc32)C1)N1CCO[C@H](CO)C1 [Compound 118] | < 6.00 |

| SMILES | pIC50 |
| --- | --- |
| O=C([C@H]1C[C@H](c2c(-c3ccc(F)cc3)[nH]c3c(F)cc(F)cc32)C1)N1C[C@@H]2[C@@H](CO)[C@@H]2C1 [Compound 99] | < 6.00 |
| O=C([C@H]1C[C@H](c2c(-c3ccc(F)cc3)[nH]c3c(F)cc(F)cc32)C1)N(CCO)c1cnccn1 [Compound 132] | < 6.00 |
| O=C([C@H]1C[C@H](c2c(-c3ccc(F)cc3)[nH]c3c(F)cc(F)cc32)C1)N1CCC[C@@H](CO)C1 [Compound 109] | < 6.00 |
| CC1(C)CN(C(=O)[C@H]2C[C@H](c3c(-c4ccc(F)cc4)[nH]c4c(F)cc(F)cc43)C2)CCN1C(=O)[C@H]1C[C@@](C)(O)C1 [Compound 130] | < 6.00 |
| O=C([C@H]1C[C@H](c2c(-c3ccc(F)cc3)[nH]c3c(F)cc(F)cc32)C1)N(CCO)CCCO [Compound 117] | 6.00 to 6.60 |
| CC(CO)N1CCN(C(=O)[C@H]2C[C@H](c3c(-c4ccc(F)cc4)[nH]c4c(F)cc(F)cc43)C2)CC1 (mixture of isomers) [Compound 122] | < 6.00 |
| O=C([C@H]1C[C@H](c2c(-c3ccc(F)cc3)[nH]c3c(F)cc(F)cc32)C1)N1CCC2(COC2)C1 [Compound 103] | < 6.00 |
| O=C(N[C@H](CO)C(F)(F)F)[C@H]1C[C@H](c2c(-c3ccc(F)cc3)[nH]c3c(F)cc(F)cc32)C1 [Compound 164] | > 6.60 |
| O=C(NCc1cnco1)[C@H]1C[C@H](c2c(-c3ccc(F)cc3)[nH]c3c(F)cc(F)cc32)C1 [Compound 170] | > 6.60 |
| O=C([C@H]1C[C@H](c2c(-c3ccc(F)cc3)[nH]c3c(F)cc(F)cc32)C1)N1CCCC[C@@H]1CO [Compound 107] | 6.00 to 6.60 |
| O=C([C@H]1C[C@H](c2c(-c3ccc(F)cc3)[nH]c3c(F)cc(F)cc32)C1)N1CC(O)C(N2CCOCC2)C1 (some centres unmarked) [Compound 106] | < 6.00 |
| CN1CCC(NC(=O)[C@H]2C[C@H](c3c(-c4ccc(F)cc4)[nH]c4c(F)cc(F)cc43)C2)C1=O (some centres unmarked) [Compound 7] | 6.00 to 6.60 |
| O=C([C@H]1C[C@H](c2c(-c3ccc(F)cc3)[nH]c3c(F)cc(F)cc32)C1)N1CCCC[C@@H]1CCO [Compound 156] | < 6.00 |
| O=C(N[C@@H](CO)C(F)(F)F)[C@H]1C[C@H](c2c(-c3ccc(F)cc3)[nH]c3c(F)cc(F)cc32)C1 [Compound 163] | > 6.60 |
| CO[C@H]1CCN(C(=O)[C@H]2C[C@H](c3c(-c4ccc(F)cc4)[nH]c4c(F)cc(F)cc43)C2)C1 [Compound 95] | < 6.00 |
| CC1(C)CN(C(=O)[C@H]2C[C@H](c3c(-c4ccc(F)cc4)[nH]c4c(F)cc(F)cc43)C2)CC1O (some centres unmarked) [Compound 102] | < 6.00 |
| CN(CC(O)CO)C(=O)[C@H]1C[C@H](c2c(-c3ccc(F)cc3)[nH]c3c(F)cc(F)cc32)C1 (some centres unmarked) [Compound 158] | 6.00 to 6.60 |

From patent US12116343B2, “Inhibitors of APOL1 and methods of using same” (Vertex Pharmaceuticals Incorporated, priority 2020, dated 2024)
